Patent US20050175545A1, “Formulation for inhalation comprising a glucocorticoid and a beta 2-adrenoreceptor agonist” (priority 2002, published 2005)
Values belong to the compound of their own block, whether it stands above or below them.

Assays:
lung eosinophilia = experiment: ovalbumin sensitised Brown Norway rat eosinophilia model; type: in vivo; conditions: intra-tracheal suspension in saline 30 min prior to ovalbumin challenge
Description: Pharmacological activity in vivo was assessed in an ovalbumin sensitised Brown Norway rat eosinophilia model. This model is designed to mimic allergen induced lung eosinophilia, a major component of lung inflammation in asthma.

rat hepatocytes = experiment: In vitro metabolism in rat hepatocytes; type: in vitro ADME; conditions: 17-β carboxylic acid (X) only significant metabolite
human hepatocytes = experiment: In vitro metabolism in human hepatocytes; type: in vitro ADME; conditions: 17-β carboxylic acid (X) only significant metabolite
[1] = Pharmacokinetics after intravenous administration in the anaesthetised pig; type: in vivo; conditions: for clearance (comparison, in words): intravenous 0.1 mg/kg; for pharmacokinetic parameters (comparison, in words): intravenous mixture of the two compounds at 0.1 mg/kg
Excerpt: The clearance of these two glucocorticoids is similar is this experimental pig model.

[2] = Pharmacokinetics after intra-tracheal dry powder dosing in the pig; type: in vivo; conditions: intra-tracheal 1 mg; lower limits of quantitation 10 (Example 1) and 20 pg/mL (fluticasone propionate)
Description: Serial blood samples were taken for up to 8h following dosing.

[3] = Pharmacokinetics after intravenous and oral dosing in rats; conditions: in vivo data in the rat
NFκB = NFκB firefly luciferase reporter stimulated with TNFα, transrepression; type: cell-based; conditions: Homo sapiens, A549, read-out: Transrepression (NFκB) ED50 (nM)
Excerpt: The glucocorticoid receptor (GR) can function in at least two distinct mechanisms, by upregulating gene expression through the direct binding of GR to specific sequences in gene promoters, and by downregulating gene expression that is being driven by other transcription factors (such as NFκB or AP-1) through their direct interaction with GR.
The first cell line contains the firefly luciferase reporter gene under the control of a synthetic promoter that specifically responds to activation of the transcription factor NFκB when stimulated with TNFα. The second cell line contains the renilla luciferase reporter gene under the control of a synthetic promotor that comprises 3 copies of the consensus glucocorticoid response element, and which responds to direct stimulation by glucocorticoids. Simultaneous measurement of transactivation and transrepression was conducted by mixing the two cell lines in a 1:1 ratio in 96 well plate (40,000 cells per well) and growing overnight at 37° C. Test compounds were dissolved in DMSO, and added to the cells at a final DMSO concentration of 0.7%. After incubation for 1 h 0.5 ng/ml TNFα (R&D Systems) was added and after a further 15 hours at 37° C., the levels of firefly and renilla luciferase were measured using the Packard Firelite kit following the manufacturers' directions. Dose response curves were constructed from which EC50 values were determined.

clearance (comparison, in words) [1]: similar
pharmacokinetic parameters (comparison, in words) [1]: the same
time after dosing up to which quantifiable in plasma [2]: up to 2 hours
plasma clearance (in words) [3]: approaching hepatic blood flow
SMILES: C[C@@H]1CC2C3C[C@H](F)C4=CC(=O)C=C[C@]4(C)[C@@]3(F)[C@@H](O)C[C@]2(C)[C@@]1(OC(=O)c1ccco1)C(=O)SCF (stereo partly drawn) [Example 1, 6α,9α-Difluoro-17α-[(2-furanylcarbonyl)oxy]-11β-hydroxy-16α-methyl-3-oxo-androsta-1,4-diene-17β-carbothioic acid S-fluoromethyl ester]
inhibition of lung eosinophilia (dose relation, in words) (lung eosinophilia): dose dependant inhibition
manner of metabolism (rat hepatocytes): metabolised in an identical manner to fluticasone propionate
manner of metabolism (human hepatocytes): metabolised in an identical manner to fluticasone propionate

SMILES: CC1CC2C3CC(F)C4=CC(=O)C=CC4(C)C3(F)C(O)CC2(C)C1(OC(=O)c1ccsc1)C(=O)SCF (stereo not drawn) [Example 4, 6α,9α-Difluoro-11β-hydroxy-16α-methyl-3-oxo-17α-[(3-thienylcarbonyl)oxy]-androsta-1,4-diene-17β-carbothioic acid S-fluoromethyl ester]
plasma clearance (in words) [3]: approaching hepatic blood flow

SMILES: Cc1ccoc1C(=O)OC1(C(=O)SCF)C(C)CC2C3CC(F)C4=CC(=O)C=CC4(C)C3(F)C(O)CC21C (stereo not drawn) [Example 19, 6α,9α-Difluoro-11β-hydroxy-16α-methyl-17α-[(3-methylfuran-2-carbonyl)oxy]-3-oxo-androsta-1,4-diene-17β-carbothioic acid S-fluoromethyl ester]
plasma clearance (in words) [3]: approaching hepatic blood flow

SMILES: Cc1cc(C(=O)OC2(C(=O)SCF)C(C)CC3C4CC(F)C5=CC(=O)C=CC5(C)C4(F)C(O)CC32C)no1 (stereo not drawn) [Example 24, 6α,9α-Difluoro-11β-hydroxy-16α-methyl-17α-[(5-methylisoxazole-3-carbonyl)oxy]-3-oxo-androsta-1,4-diene-17β-carbothioic acid S-fluoromethyl ester]
plasma clearance (in words) [3]: approaching hepatic blood flow

SMILES: Cc1cc(C(=O)OC2(C(=O)SCF)C(C)CC3C4CC(F)C5=CC(=O)C=CC5(C)C4(F)C(O)CC32C)on1 (stereo not drawn) [Example 25, 6α,9α-Difluoro-11β-hydroxy-16α-methyl-17α-[(3-methylisoxazole-5-carbonyl)oxy]-3-oxo-androsta-1,4-diene-17β-carbothioic acid S-fluoromethyl ester]
plasma clearance (in words) [3]: approaching hepatic blood flow

SMILES: CC1CC2C3CC(F)C4=CC(=O)C=CC4(C)C3(F)C(O)CC2(C)C1(OC(=O)c1ccon1)C(=O)SCF (stereo not drawn) [Example 28, 6α,9α-Difluoro-11β-hydroxy-17α-[(isoxazole-3-carbonyl)oxy]-16α-methyl-3-oxo-androsta-1,4-diene-17β-carbothloic acid S-fluoromethyl ester]
plasma clearance (in words) [3]: approaching hepatic blood flow

clearance (comparison, in words) [1]: similar
pharmacokinetic parameters (comparison, in words) [1]: the same
time after dosing up to which quantifiable in plasma [2]: up to 8 hours
SMILES: CCC(=O)O[C@]1(C(=O)SCF)[C@H](C)C[C@H]2[C@@H]3C[C@H](F)C4=CC(=O)C=C[C@]4(C)[C@@]3(F)[C@@H](O)C[C@@]21C [Fluticasone propionate, 6α,9α-Difluoro-17α-(1-oxopropoxy)-11β-hydroxy-16α-methyl-3-oxo-androsta-1,4-diene-17β-carbothioic acid S-fluoromethyl ester, reference compound]

SMILES: C[C@@H]1C[C@H]2[C@@H]3C[C@H](F)C4=CC(=O)C=C[C@]4(C)[C@@]3(F)[C@@H](O)C[C@]2(C)[C@@]1(OC(=O)c1ccco1)C(=O)O [Metabolite (X)]
EC50 (NFκB): > 1000 nM
